Data from PubChem BioAssay AID248 (DTP/NCI, 2004).
Where “and” joins values, the source holds several entries; their conditions need not be identical. Equal values may be shown once. Toxic doses and inconclusive results are not listed. No stated cut-off is given here; in the data, active means T/C of 150% or more; inactive means T/C below 125%.

Tested on: L1210 leukemia ip in BDF1 mice, survival T/C
Test: NCI In Vivo Anticancer Drug Screen. Data for tumor model L1210 Leukemia (intraperitoneal) in B6D2F1 (BDF1) mice
Conditions: endpoint: mean survival time, higher = longer survival
Method in brief: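 Each compound was tested against a transplantable tumor grown in mice. The endpoint was survival, with treated animals benchmarked against vehicle controls as a simple ratio.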

[1] = dose: 100.0 mg/kg/injection, schedule: Q01DX009 (ip), vehicle: Klucel (hydroxypropylcellulose) (HPC)
[2] = dose: 200.0 mg/kg/injection, schedule: Q01DX009 (ip), vehicle: Klucel (hydroxypropylcellulose) (HPC)
[3] = dose: 25.0 mg/kg/injection, schedule: Q01DX009 (ip), vehicle: saline
[4] = dose: 50.0 mg/kg/injection, schedule: Q01DX009 (ip), vehicle: saline
[5] = dose: 100.0 mg/kg/injection, schedule: Q04DX003 (ip), vehicle: saline with Tween-80
[6] = dose: 50.0 mg/kg/injection, schedule: Q01DX009 (ip), vehicle: saline with Tween-80
[7] = dose: 100.0 mg/kg/injection, schedule: Q01DX009 (ip), vehicle: saline with Tween-80
[8] = dose: 200.0 mg/kg/injection, schedule: Q01DX009 (ip), vehicle: saline with Tween-80
[9] = dose: 50.0 mg/kg/injection, schedule: Q01DX001 (ip), vehicle: carboxymethylcellulose (CMC)
[10] = dose: 100.0 mg/kg/injection, schedule: Q01DX001 (ip), vehicle: carboxymethylcellulose (CMC)
[11] = dose: 200.0 mg/kg/injection, schedule: Q01DX001 (ip), vehicle: carboxymethylcellulose (CMC)
[12] = dose: 400.0 mg/kg/injection, schedule: Q01DX001 (ip), vehicle: carboxymethylcellulose (CMC)
[13] = dose: 100.0 mg/kg/injection, schedule: Q01DX001 (ip), vehicle: saline with Tween-80
[14] = dose: 200.0 mg/kg/injection, schedule: Q01DX001 (ip), vehicle: saline with Tween-80
[15] = dose: 200.0 mg/kg/injection, schedule: Q04DX003 (ip), vehicle: saline with Tween-80
[16] = dose: 400.0 mg/kg/injection, schedule: Q04DX003 (ip), vehicle: saline with Tween-80
[17] = dose: 100.0 mg/kg/injection, schedule: Q04DX003 (ip), vehicle: saline
[18] = dose: 100.0 mg/kg/injection, schedule: Q04DX003 (ip), vehicle: Klucel (hydroxypropylcellulose) (HPC)
[19] = dose: 200.0 mg/kg/injection, schedule: Q04DX003 (ip), vehicle: Klucel (hydroxypropylcellulose) (HPC)
[20] = dose: 400.0 mg/kg/injection, schedule: Q04DX003 (ip), vehicle: Klucel (hydroxypropylcellulose) (HPC)
[21] = dose: 100.0 mg/kg/injection, schedule: Q04DX002 (ip), vehicle: Klucel (hydroxypropylcellulose) (HPC)
[22] = dose: 200.0 mg/kg/injection, schedule: Q04DX002 (ip), vehicle: Klucel (hydroxypropylcellulose) (HPC)
[23] = dose: 400.0 mg/kg/injection, schedule: Q04DX002 (ip), vehicle: Klucel (hydroxypropylcellulose) (HPC)
[24] = dose: 400.0 mg/kg/injection, schedule: Q01DX001 (ip), vehicle: saline with Tween-80

Measured: T/C

C[n+]1ccc(C(=O)O)c2ccccc21
inactive: dose: 75.0 mg/kg/injection, schedule: Q01DX001 (ip), vehicle: saline 94 % of control | dose: 75.0 mg/kg/injection, schedule: Q04DX003 (ip), vehicle: acetone 92 % of control | dose: 150.0 mg/kg/injection, schedule: Q01DX001 (ip), vehicle: saline 95 % of control | dose: 150.0 mg/kg/injection, schedule: Q04DX003 (ip), vehicle: acetone 89 % of control | dose: 300.0 mg/kg/injection, schedule: Q01DX001 (ip), vehicle: saline 90 % of control

O=C(NCCCl)NC1CCCCCC1
inactive: [1] 101 % of control | [2] 108 % of control | dose: 400.0 mg/kg/injection, schedule: Q01DX009 (ip), vehicle: Klucel (hydroxypropylcellulose) (HPC) 100 % of control

Cc1ccc(C(=O)C[S+](C)C)c(C)c1
inactive: [3] 98 % of control | [4] 95 % of control | [5] 102 % of control

ClC1=CC2CCC1C21CC1 (stereo not given)
inactive: [6] 105 % of control | dose: 100.0 mg/kg/injection, schedule: Q01DX005 (ip), vehicle: saline with Tween-80 92 % of control | [7] 94 % of control | dose: 100.0 mg/kg/injection, schedule: Q04DX002 (ip), vehicle: saline with Tween-80 87 % of control | dose: 200.0 mg/kg/injection, schedule: Q01DX005 (ip), vehicle: saline with Tween-80 96 % of control | [8] 97 % of control | dose: 200.0 mg/kg/injection, schedule: Q04DX002 (ip), vehicle: saline with Tween-80 100 % of control | dose: 400.0 mg/kg/injection, schedule: Q04DX002 (ip), vehicle: saline with Tween-80 103 % of control

Cc1ccc([As](=O)(O)O)cc1F
inactive: dose: 1.56 mg/kg/injection, schedule: Q01DX009 (ip), vehicle: Klucel (hydroxypropylcellulose) (HPC) 94 % of control | dose: 3.13 mg/kg/injection, schedule: Q01DX009 (ip), vehicle: Klucel (hydroxypropylcellulose) (HPC) 94 % of control | dose: 6.25 mg/kg/injection, schedule: Q01DX009 (ip), vehicle: Klucel (hydroxypropylcellulose) (HPC) 88 % of control

CC1(c2ccc(O)cc2)CCC(C(C)(C)c2ccc(O)cc2)CC1 (stereo not given)
inactive: [7] 107 % of control | [8] 107 % of control

COc1ccc(CNCCC(=O)O)cc1OC
inactive: [9] 107 % of control | [10] 100 % of control | [11] 105 % of control | [12] 105 % of control

OCn1nc(Cl)c2cc(Cl)ccc21
inactive: [10] 103 % of control | [11] 98 % of control | [12] 100 % of control

Cc1cc2c(cc1C)NC(=O)CC(c1ccccc1)=N2
inactive: [10] 98 % of control | [11] 93 % of control | [12] 98 % of control

COc1ccc(-c2sc(/N=C/c3cc(Br)cc(Br)c3O)c(C#N)c2C)cc1OC
inactive: [13] 89 % of control | [5] 93 % of control | [14] 91 % of control | [15] 98 % of control and 90 % of control | [16] 90 % of control

CC(C)N1C(=O)NC(=O)C12CCN(Cc1ccccc1)CC2
inactive: [10] 101 % of control | [11] 98 % of control | [12] 95 % of control

CCCCCCCCCCCCCCCC(=O)N(CCCN)CCCCCCCCCN(CCCN)C(=O)CCCCCCCCCCCCCCC
inactive: [3] 96 % of control | [4] 97 % of control | [17] 91 % of control

CN1CC=C(/C=C/c2cccc3ccccc23)CC1
inactive: [3] 100 % of control | [4] 103 % of control | dose: 100.0 mg/kg/injection, schedule: Q01DX009 (ip), vehicle: saline 114 % of control | [17] 103 % of control

COc1ccc(OCC(O)CN2CCN(c3ccc(Cl)cc3)CC2)cc1 (stereo not given)
inactive: [5] 93 % of control | [15] 90 % of control | [16] 98 % of control

O=P(Oc1ccccc1)(Oc1ccccc1)c1ccccc1
inactive: [18] 95 % of control | [19] 98 % of control | [20] 98 % of control

O=C(Nc1ccc(Cl)cc1)Oc1ccc(Nc2ccccc2)cc1
inactive: [21] 114 % of control | [22] 111 % of control | [23] 111 % of control

O=C1c2ccccc2-c2cc(F)cc(F)c21
inactive: [9] 104 % of control | [10] 102 % of control | [11] 102 % of control | [12] 102 % of control

CN(C)Cc1ccccc1COC(=O)/C=C/c1ccccc1
inactive: dose: 50.0 mg/kg/injection, schedule: Q04DX002 (ip), vehicle: Klucel (hydroxypropylcellulose) (HPC) 101 % of control | [21] 94 % of control | [22] 97 % of control

O=C(NCCCCCCCCCNC(=O)Nc1ccc(C2=NCCCN2)cc1)Nc1ccc(C2=NCCCN2)cc1
inactive: dose: 3.75 mg/kg/injection, schedule: Q01DX Z (ip), vehicle: carboxymethylcellulose (CMC) 91 % of control | dose: 7.5 mg/kg/injection, schedule: Q01DX Z (ip), vehicle: carboxymethylcellulose (CMC) 98 % of control | dose: 15.0 mg/kg/injection, schedule: Q01DX Z (ip), vehicle: carboxymethylcellulose (CMC) 122 % of control

Cc1c(C)c(C)c(C(=O)O)c(C)c1C
inactive: [6] 93 % of control | [7] 90 % of control | [8] 93 % of control

C[C@]12CC[C@H]3[C@@H](CCC4=CC(=O)CC[C@@]43CO)[C@@H]1CC[C@@H]2O
inactive: dose: 50.0 mg/kg/injection, schedule: Q01DX001 (sc), vehicle: steriod suspending solution 102 % of control | dose: 100.0 mg/kg/injection, schedule: Q01DX001 (sc), vehicle: steriod suspending solution 98 % of control | dose: 200.0 mg/kg/injection, schedule: Q01DX001 (sc), vehicle: steriod suspending solution 98 % of control | dose: 400.0 mg/kg/injection, schedule: Q01DX001 (sc), vehicle: steriod suspending solution 102 % of control

O=C(O)CN1C(=O)C2C3CCC(O3)C2C1=O (stereo not given)
inactive: [17] 107 % of control | dose: 200.0 mg/kg/injection, schedule: Q04DX003 (ip), vehicle: saline 98 % of control | dose: 400.0 mg/kg/injection, schedule: Q04DX003 (ip), vehicle: saline 98 % of control

CCOC(=O)c1ccc(N=CN(C)C)cc1
inactive: [18] 100 % of control | [19] 95 % of control | [20] 107 % of control

S=C(N/N=C/C(c1ccccc1)c1ccccc1)Nc1ccccc1
inactive: [13] 95 % of control | [7] 86 % of control | [14] 102 % of control | [24] 98 % of control | dose: 400.0 mg/kg/injection, schedule: Q01DX009 (ip), vehicle: saline with Tween-80 86 % of control

S=c1cc[nH]c(=S)[nH]1
inactive: dose: 50.0 mg/kg/injection, schedule: Q04DX003 (ip), vehicle: Klucel (hydroxypropylcellulose) (HPC) 97 % of control | [18] 97 % of control | [19] 95 % of control

CC(C)C(=O)Oc1ccc(-c2ccccc2)cc1
inactive: [21] 93 % of control | [22] 100 % of control | [23] 100 % of control

COc1ccc([PH+](c2ccc(OC)cc2)c2ccc(OC)cc2)cc1.COc1ccc([PH+](c2ccc(OC)cc2)c2ccc(OC)cc2)cc1.[Cl][Hg][Cl]
inactive: dose: 50.0 mg/kg/injection, schedule: Q01DX009 (ip), vehicle: Klucel (hydroxypropylcellulose) (HPC) 108 % of control | [1] 101 % of control | [2] 93 % of control

CC1(C)C2CCC(I)(C2)C1I (stereo not given)
inactive: [13] 93 % of control | [14] 90 % of control | [24] 93 % of control

NC(CC[Se]CC(N)C(=O)O)C(=O)O (stereo not given)
inactive: dose: 0.5 mg/kg/injection, schedule: Q01DX009 (ip), vehicle: acetone 110 % of control | dose: 1.0 mg/kg/injection, schedule: Q01DX009 (ip), vehicle: acetone 103 % of control | dose: 2.0 mg/kg/injection, schedule: Q01DX009 (ip), vehicle: acetone 95 % of control | dose: 4.0 mg/kg/injection, schedule: Q01DX009 (ip), vehicle: acetone 108 % of control

c1cc2nnc3cccc4nnc(c1)c2c34
inactive: dose: 100.0 mg/kg/injection, schedule: Q01DX001 (ip), vehicle: saline 102 % of control | dose: 200.0 mg/kg/injection, schedule: Q01DX001 (ip), vehicle: saline 107 % of control | dose: 400.0 mg/kg/injection, schedule: Q01DX001 (ip), vehicle: saline 103 % of control
